Measured values reported in ChEMBL document CHEMBL1201862, “PubChem BioAssay data set” (2004).
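96-well plates; 48 h exposure; 5 concentrations. Endpoints by linear interpolation between flanking doses. Not reached: highest tested concentration assigned. GI50 is the concentration that inhibits growth by half.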 Calls of active or inactive are those of the source. Cut-off read from the data, not from the text of the source: active = GI50 up to about 1.1 µM and inactive = higher.

Assays:
Experiment in all cases: NCI tumour cell line growth inhibition, 48 h
CAKI-1 = test system: CAKI-1
LOX IMVI = test system: LOX IMVI
HCT-15 = test system: HCT-15
EKVX = test system: EKVX
SNB-19 = test system: SNB-19
HL-60 = test system: HL-60
SF-268 = test system: SF-268
OVCAR-8 = test system: OVCAR-8
NCI-H23 = test system: NCI-H23
HOP-62 = test system: HOP-62
SN12C = test system: SN12C
NCI-H226 = test system: NCI-H226
IGROV-1 = test system: IGROV-1
Malme-3M = test system: Malme-3M
MOLT-4 = test system: MOLT-4
M14 = test system: M14
ACHN = test system: ACHN
786-0 = test system: 786-0

Row | SMILES | GI50 (CAKI-1) | GI50 (LOX IMVI) | GI50 (HCT-15) | GI50 (EKVX) | GI50 (SNB-19) | GI50 (HL-60) | GI50 (SF-268) | GI50 (OVCAR-8) | GI50 (NCI-H23) | GI50 (HOP-62) | GI50 (SN12C) | GI50 (NCI-H226) | GI50 (IGROV-1) | GI50 (Malme-3M) | GI50 (MOLT-4) | GI50 (M14) | GI50 (ACHN) | GI50 (786-0)
1 | O=C1C=CC2OC(c3ccccc3)C(O)C2O1 (stereo unspecified) | 2.85 µM (inactive) | 1.95 µM (inactive) | 3.42 µM | 4.91 µM (inactive) | 11.4 µM (inactive) | 1.4 µM (inactive) | 5.53 µM (inactive) | 3.62 µM (inactive) | 3.07 µM (inactive) | 12 µM (inactive) | 7.03 µM (inactive) | 1.48 µM (inactive) | 8.99 µM (inactive) | 3.02 µM (inactive) | 1.43 µM (inactive) |  |  | 
2 | COC(=O)[C@@H](O)[C@](O)(CCC(C)C)C(=O)O[C@@H]1C(OC)=C[C@]23CCCN2CCc2cc4c(cc2[C@H]13)OCO4 | 1.77 µM (inactive) | 0.562 µM (active) | 1.68 µM | 1.71 µM (inactive) | 0.373 µM (active) | 0.349 µM (active) | 0.984 µM (active) | 1.88 µM (inactive) | 1.55 µM (inactive) | 0.575 µM (active) | 2.36 µM (inactive) | 1.64 µM (inactive) | 1.07 µM (active) | 0.459 µM (active) | 0.32 µM (active) |  |  | 
3 | CCN(CC)CCNC(=O)c1cccc2cc3ccccc3nc12 | 4.48 µM (inactive) | 5.57 µM (inactive) | 4.47 µM | 5.73 µM (inactive) | 7.45 µM (inactive) | 4.8 µM (inactive) | 6.84 µM (inactive) | 6 µM (inactive) |  | 10.4 µM (inactive) | 5.18 µM (inactive) | 4.18 µM (inactive) | 5.2 µM (inactive) |  | 2.96 µM (inactive) | 5.9 µM (inactive) | 3.45 µM (inactive) | 6.15 µM (inactive)
4 | CN1CCc2c1nc(-c1ccc([N+](=O)[O-])cc1)c1c2N(C)CC1 | 26.4 µM (inactive) | 44.2 µM (inactive) | 99.5 µM | > 100 µM (inactive) | > 100 µM (inactive) | 60.1 µM (inactive) | > 100 µM (inactive) | > 100 µM (inactive) | > 100 µM (inactive) | 86.7 µM (inactive) | > 100 µM (inactive) |  | > 100 µM (inactive) | > 100 µM (inactive) | 91.2 µM (inactive) | 77.6 µM (inactive) | > 100 µM (inactive) | > 100 µM (inactive)
5 | C/C=C1\C=C(OC)CN(CCc2c[nH]c3ccccc23)C1 |  | 23.2 µM (inactive) | 56.6 µM | 60.7 µM (inactive) | > 100 µM (inactive) | 61 µM (inactive) | 19 µM (inactive) | > 100 µM (inactive) | > 100 µM (inactive) | 73.5 µM (inactive) | 59.6 µM (inactive) | 27.2 µM (inactive) | > 100 µM (inactive) | 22.5 µM (inactive) | > 100 µM (inactive) | 27.7 µM (inactive) | > 100 µM (inactive) | 59 µM (inactive)
6 | COC(=O)CCC(=O)Nc1cc(C)ccc1C | > 100 µM (inactive) | > 100 µM (inactive) |  | > 100 µM (inactive) | > 100 µM (inactive) | > 100 µM (inactive) |  | > 100 µM (inactive) | > 100 µM (inactive) | > 100 µM (inactive) | > 100 µM (inactive) | > 100 µM (inactive) | > 100 µM (inactive) | > 100 µM (inactive) | > 100 µM (inactive) | > 100 µM (inactive) | > 100 µM (inactive) | > 100 µM (inactive)
7 | COc1ccc2c(c1)C/C(=C\c1ccc(O)c(OC)c1)C2=O | > 100 µM (inactive) | > 100 µM (inactive) | > 100 µM | > 100 µM (inactive) | > 100 µM (inactive) | > 100 µM (inactive) | > 100 µM (inactive) | > 100 µM (inactive) | > 100 µM (inactive) |  | > 100 µM (inactive) | > 100 µM (inactive) | > 10 µM (inactive) |  | > 100 µM (inactive) | > 100 µM (inactive) | > 100 µM (inactive) | > 100 µM (inactive)
8 | COc1cccc(NC(=S)Nn2c(C)nc3ccccc3c2=O)c1 | > 100 µM (inactive) | > 100 µM (inactive) | > 100 µM |  |  | > 100 µM (inactive) | > 100 µM (inactive) | > 100 µM (inactive) | > 100 µM (inactive) | > 100 µM (inactive) | > 100 µM (inactive) | 80.2 µM (inactive) | > 100 µM (inactive) | > 100 µM (inactive) | > 100 µM (inactive) | > 100 µM (inactive) | > 100 µM (inactive) | > 100 µM (inactive)
9 | CC(C)c1cccc(C(C)C)c1NC(=O)C(=O)C(C(=O)c1ccccc1-c1ccccc1)C1OC(=O)c2ccccc21 (stereo unspecified) | 30.1 µM (inactive) | 14.2 µM (inactive) | 18.4 µM | > 10 µM (inactive) | 16.8 µM (inactive) |  | 21.7 µM (inactive) | 13.7 µM (inactive) | 1.25 µM (inactive) |  | 20.8 µM (inactive) | > 10 µM (inactive) | 24.3 µM (inactive) | 14.8 µM (inactive) | 11.6 µM (inactive) |  | 32.3 µM (inactive) | 17.8 µM (inactive)
10 | CC(=O)CCCCCCCCCCCC[C@@H]1CC[C@H](C)[C@H](O)N1 | > 100 µM (inactive) | 40.3 µM (inactive) | > 100 µM | > 100 µM (inactive) | > 100 µM (inactive) | 43.4 µM (inactive) | > 100 µM (inactive) | > 100 µM (inactive) | > 100 µM (inactive) | > 100 µM (inactive) |  | > 100 µM (inactive) | > 100 µM (inactive) | > 100 µM (inactive) | > 100 µM (inactive) | 53.5 µM (inactive) | > 100 µM (inactive) | > 100 µM (inactive)
11 | CCCCNC1=C(C(=O)OCC)/C(=N/NC(=O)c2ccccc2O)CO1 | 8.53 µM (inactive) | 25.5 µM (inactive) |  | > 100 µM (inactive) | > 100 µM (inactive) | 24.8 µM (inactive) | 6.97 µM (inactive) | 95.1 µM (inactive) | 18.8 µM (inactive) | 17.6 µM (inactive) | 61 µM (inactive) | 18.5 µM (inactive) | 8.99 µM (inactive) | 35.2 µM (inactive) | 40.1 µM (inactive) | 37.2 µM (inactive) |  | 32.1 µM (inactive)
12 | O=C(O)c1c[nH]cc1C(=O)O | > 100 µM (inactive) | > 100 µM (inactive) | > 100 µM | > 100 µM (inactive) | > 100 µM (inactive) | > 100 µM (inactive) | > 100 µM (inactive) | > 100 µM (inactive) | > 100 µM (inactive) | > 100 µM (inactive) | > 100 µM (inactive) | > 100 µM (inactive) | > 100 µM (inactive) | > 100 µM (inactive) | > 100 µM (inactive) | > 100 µM (inactive) |  | > 100 µM (inactive)
13 | CCOC1CC2OC(=O)C1C=C2C(=O)OC (stereo unspecified) | 22.3 µM (inactive) | 87.5 µM (inactive) | 27.7 µM | > 100 µM (inactive) | 28 µM (inactive) | 19.6 µM (inactive) | 28.9 µM (inactive) |  | 17.9 µM (inactive) | > 100 µM (inactive) |  | 32.7 µM (inactive) | 46.6 µM (inactive) | 20.5 µM (inactive) | 17.4 µM (inactive) | 18.5 µM (inactive) | 27.8 µM (inactive) | 29.2 µM (inactive)
14 | CCN(CC)C(=O)C(C)n1cc(C)c(=O)[nH]c1=O (stereo unspecified) |  | > 100 µM (inactive) | > 100 µM | > 100 µM (inactive) | > 100 µM (inactive) | > 100 µM (inactive) | > 100 µM (inactive) | > 100 µM (inactive) | > 100 µM (inactive) | > 100 µM (inactive) | > 100 µM (inactive) |  | > 100 µM (inactive) | > 100 µM (inactive) | > 100 µM (inactive) | > 100 µM (inactive) | > 100 µM (inactive) | > 100 µM (inactive)
15 | OCc1ccc2[n+](c1)CCC1c3ccccc3NC21 (stereo unspecified) | > 300 µM (inactive) | > 300 µM (inactive) | > 300 µM | > 300 µM (inactive) | > 300 µM (inactive) | > 300 µM (inactive) | 167 µM (inactive) | > 300 µM (inactive) | > 300 µM (inactive) | > 300 µM (inactive) | > 300 µM (inactive) | > 300 µM (inactive) | > 300 µM (inactive) | 75.5 µM (inactive) | > 300 µM (inactive) |  | > 300 µM (inactive) | > 300 µM (inactive)
16 | CC1CC(=O)CC[C@@H]1OCc1ccccc1 (stereo partly specified) | > 100 µM (inactive) | > 100 µM (inactive) | > 100 µM | > 100 µM (inactive) | > 100 µM (inactive) | > 100 µM (inactive) | > 100 µM (inactive) | > 100 µM (inactive) | > 100 µM (inactive) | > 100 µM (inactive) | > 100 µM (inactive) |  | > 100 µM (inactive) | > 100 µM (inactive) | 54.3 µM (inactive) | > 100 µM (inactive) | > 100 µM (inactive) | > 100 µM (inactive)
17 | Cc1cc2c(=O)n(-c3ccc(F)cc3)c(C)nc2c(C(=O)O)c1C | > 100 µM (inactive) | > 100 µM (inactive) | > 100 µM | > 100 µM (inactive) |  | > 100 µM (inactive) | > 100 µM (inactive) | > 100 µM (inactive) | > 100 µM (inactive) | > 100 µM (inactive) | > 100 µM (inactive) | > 100 µM (inactive) | > 100 µM (inactive) | > 100 µM (inactive) | > 100 µM (inactive) | > 100 µM (inactive) | > 100 µM (inactive) | > 100 µM (inactive)
